The compounds below were run against Recombinant human cathepsin A (Homo sapiens (Human), UniProt P10619) (assay: Cathepsin A inhibitory activity (cleavage of Bodipy FL-labeled bradykinin, microfluidic capillary electrophoresis)). Conditions: read-out: Activity (IC50, cathepsin A inhibitory activity).
Format: biochemical

Recombinant human cathepsin A, sequence (P10619 29-326): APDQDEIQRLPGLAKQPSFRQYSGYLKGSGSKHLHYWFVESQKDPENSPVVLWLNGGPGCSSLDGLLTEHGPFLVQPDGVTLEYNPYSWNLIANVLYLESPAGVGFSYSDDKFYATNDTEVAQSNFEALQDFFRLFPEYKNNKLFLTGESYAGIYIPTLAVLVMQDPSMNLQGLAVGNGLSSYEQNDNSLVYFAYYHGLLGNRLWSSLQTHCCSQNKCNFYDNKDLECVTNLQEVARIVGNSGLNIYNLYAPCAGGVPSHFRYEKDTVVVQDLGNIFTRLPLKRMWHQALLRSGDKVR
Recombinant human cathepsin A, sequence (P10619 327-480): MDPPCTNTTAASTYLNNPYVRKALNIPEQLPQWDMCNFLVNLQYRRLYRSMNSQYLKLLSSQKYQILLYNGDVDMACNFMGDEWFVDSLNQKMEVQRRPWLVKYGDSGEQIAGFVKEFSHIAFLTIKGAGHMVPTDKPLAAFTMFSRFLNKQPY

IC50 [µM]	SMILES
3.26	COc1ccc(C(=O)N[C@@H](CC(=O)O)c2ccc(C)cc2)nc1-c1ccc(F)c(C)c1 [compound 225]
2.24	COc1ccc(Cl)cc1-c1nc(C(=O)N[C@@H](CC(=O)O)c2ccc(C)cc2)ccc1OC [compound 233]
3.54	COc1ccc(C(=O)N[C@@H](CC(=O)O)c2ccc(C)cc2)nc1-c1ccc(C)o1 [compound 237]
8.43	COc1ccc(C(=O)N[C@@H](CC(=O)O)c2ccc(C)cc2)nc1-c1cc(C)cnc1Cl [compound 247]
8.71	COc1ccc(C(=O)N[C@@H](CC(=O)O)c2ccc(C)cc2)nc1-c1cccc(-c2nnc(C)o2)c1 [compound 249]
8.94	COc1ccc(C(=O)N[C@@H](CC(=O)O)c2ccc(C)cc2)nc1-c1ccc2ccn(C)c2c1 [compound 251]
5.27	COc1ccc(C(=O)N[C@@H](CC(=O)O)c2ccccc2F)nc1-c1ccc(Cl)cc1 [compound 258]
5.01	COc1ccc(-c2nc(C(=O)N[C@@H](CC(=O)O)c3ccccc3F)ccc2OC)cc1 [compound 259]
1.26	COc1ccc(C(=O)N[C@@H](CC(=O)O)c2ccccc2F)nc1-c1cccc(F)c1 [compound 266]
1.01	COc1ccc(C(=O)N[C@@H](CC(=O)O)c2ccccc2F)nc1-c1cccc(C)c1 [compound 269]
2.16	COc1ccc(C(=O)N[C@@H](CC(=O)O)c2ccccc2F)nc1-c1cccc(-c2ccccc2)c1 [compound 276]
3.85	COc1ccc(C(=O)N[C@@H](CC(=O)O)c2ccccc2F)nc1-c1cc(F)cc(F)c1 [compound 279]
5.4	COc1ccc(C(=O)N[C@@H](CC(=O)O)c2ccccc2F)nc1-c1ccc(C#N)s1 [compound 283]
> 10	COc1ccc(C(=O)N[C@@H](CC(=O)O)c2ccccc2F)nc1-c1cccnc1 [compound 284]
4.02	COc1ccc(C(=O)N[C@@H](CC(=O)O)c2ccccc2F)nc1-c1ccc(C)cc1C [compound 291]
4.13	COc1ccc(C(=O)N[C@@H](CC(=O)O)c2ccccc2F)nc1-c1ccc(F)c(C)c1 [compound 292]
4.11	COc1ccc(Cl)cc1-c1nc(C(=O)N[C@@H](CC(=O)O)c2ccccc2F)ccc1OC [compound 300]
3.99	COc1ccc(C(=O)N[C@@H](CC(=O)O)c2ccccc2F)nc1-c1cc(C(F)(F)F)ccc1F [compound 304]

The next lines start with the compound.

SMILES	IC50 [µM]
COc1ccc(C(=O)N[C@@H](CC(=O)O)c2ccccc2Cl)nc1-c1ccc(C(F)(F)F)cc1F [compound 214]	7.02
COc1ccc(C(=O)N[C@@H](CC(=O)O)c2ccc(C)cc2)nc1-c1ccncc1 [compound 215]	9.66
COc1ccc(C(=O)N[C@@H](CC(=O)O)c2ccc(C)cc2)nc1-c1ccc(C)c(F)c1 [compound 223]	1.29
COc1ccc(C(=O)N[C@@H](CC(=O)O)c2ccc(C)cc2)nc1-c1ccc(C)cc1C [compound 224]	3.39
COc1ccc(C(=O)N[C@@H](CC(=O)O)c2ccc(C)cc2)nc1-c1ccc(F)nc1 [compound 227]	7.63
COc1ccc(C(=O)N[C@@H](CC(=O)O)c2ccc(C)cc2)nc1-c1ccccc1C(=O)N(C)C [compound 228]	3.96
COc1cc(Cl)ccc1-c1nc(C(=O)N[C@@H](CC(=O)O)c2ccc(C)cc2)ccc1OC [compound 232]	2.33
COc1ccc(C(=O)N[C@@H](CC(=O)O)c2ccc(C)cc2)nc1-c1cc(C(F)(F)F)ccc1F [compound 236]	3.57
COc1ccc(F)c(-c2nc(C(=O)N[C@@H](CC(=O)O)c3ccc(C)cc3)ccc2OC)c1 [compound 239]	1.16
COc1ccc(C(C)(C)C)cc1-c1nc(C(=O)N[C@@H](CC(=O)O)c2ccc(C)cc2)ccc1OC [compound 240]	> 10
COc1ccc(C(=O)N[C@@H](CC(=O)O)c2ccc(C)cc2)nc1-c1ccc(Cl)c(F)c1 [compound 246]	4.48
COc1ccc(C(=O)N[C@@H](CC(=O)O)c2ccccc2F)nc1-c1cccc(C(F)(F)F)c1 [compound 253]	4.06
COc1ccc(C(=O)N[C@@H](CC(=O)O)c2ccccc2F)nc1-c1ccc(F)cc1 [compound 257]	1.26
COc1ccc(C(=O)N[C@@H](CC(=O)O)c2ccccc2F)nc1-c1ccc(C)cc1 [compound 260]	5.18
COc1ccc(C(=O)N[C@@H](CC(=O)O)c2ccccc2F)nc1-c1cccc(Cl)c1 [compound 265]	1.72
COc1ccc(C(=O)N[C@@H](CC(=O)O)c2ccccc2F)nc1-c1cccc(C#N)c1 [compound 273]	9.57
COc1ccc(C(=O)N[C@@H](CC(=O)O)c2ccccc2F)nc1-c1cccc(C(C)=O)c1 [compound 275]	8.54
COc1ccc(C(=O)N[C@@H](CC(=O)O)c2ccccc2F)nc1-c1ccc(F)c(F)c1 [compound 280]	3.12
COc1ccc(C(=O)N[C@@H](CC(=O)O)c2ccccc2F)nc1-c1ccc(C)c(F)c1 [compound 290]	3.81
COc1ccc(C(=O)N[C@@H](CC(=O)O)c2ccccc2F)nc1-c1ccccc1C(=O)N(C)C [compound 295]	4.51
COc1cc(Cl)ccc1-c1nc(C(=O)N[C@@H](CC(=O)O)c2ccccc2F)ccc1OC [compound 299]	1.83

Same assay, conditions: read-out: Activity [μM] (IC50, cathepsin A inhibitory activity)

IC50 [µM]	SMILES
1.4	COc1ccc(C(=O)N[C@@H](CC(=O)O)c2ccc(C)cc2)nc1-c1cccc(-c2ccccc2)c1 [compound 204]
2.65	COc1ccc(C(=O)N[C@@H](CC(=O)O)c2ccc(C)cc2)nc1-c1cc(F)cc(F)c1 [compound 207]
3.55	COc1ccc(C(=O)N[C@@H](CC(=O)O)c2ccccc2F)nc1-c1ccc(Cl)c(F)c1 [compound 313]
2.31	COc1ccc(C(=O)N[C@@H](CC(=O)O)c2ccccc2F)nc1-c1cc(C)ccc1Cl [compound 323]
3.58	COc1ccc(C(=O)N[C@@H](CC(=O)O)c2ccccc2F)nc1-c1ccc(C#N)cc1F [compound 325]
8.46	COc1ccc(C(=O)N[C@@H](CC(=O)O)c2ccccc2F)nc1-c1cccc(C2(O)COC2)c1 [compound 326]
7.32	COc1ccc(C(=O)N[C@@H](CC(=O)O)c2ccccc2F)nc1-c1cccc(C(C)(C)O)c1 [compound 327]
3.74	COc1ccc(C(=O)N[C@@H](CC(=O)O)c2ccccc2Cl)nc1-c1cccc(C(F)(F)F)c1 [compound 329]
1.81	COc1ccc(C(=O)N[C@@H](CC(=O)O)c2ccccc2Cl)nc1-c1ccc(Cl)cc1 [compound 334]
9.5	COc1ccc(C(=O)N[C@@H](CC(=O)O)c2ccccc2Cl)nc1-c1ccc(C(F)(F)F)cc1 [compound 337]
1.51	COc1ccc(C(=O)N[C@@H](CC(=O)O)c2ccccc2Cl)nc1-c1cccc(Cl)c1 [compound 340]
9.86	COc1ncc(C(=O)N[C@@H](CC(=O)O)c2ccccc2Cl)cc1-c1cccc(F)c1 [compound 341]
3.49	COc1ncc(C(=O)N[C@@H](CC(=O)O)c2ccccc2Cl)cc1-c1ccccc1 [compound 344, (S)-3-(2-Chloro-phenyl)-3-[(6-methoxy-5-phenyl-pyridine-3-carbonyl)-amino]-propionic acid]
8.26	COc1ncc(C(=O)N[C@@H](CC(=O)O)c2ccccc2Cl)cc1-c1ccc(F)cc1 [compound 346]
8.88	COc1ccc(C(=O)N[C@@H](CC(=O)O)c2ccccc2C)nc1-c1cncnc1 [compound 372]
2.48	COc1ccc(C(=O)N[C@@H](CC(=O)O)c2ccccc2C)nc1-c1ccccc1C(=O)N(C)C [compound 374]

Second part, the compound before the results:

SMILES	IC50 [µM]
COc1ccc(C(=O)N[C@@H](CC(=O)O)c2ccc(C)cc2)nc1-c1ccc(F)c(F)c1 [compound 208]	7.42
COc1ccc(C(=O)N[C@@H](CC(=O)O)c2ccc(C)cc2)nc1-c1ccc(C(C)=O)s1 [compound 210]	7.52
COc1ccc(F)c(-c2nc(C(=O)N[C@@H](CC(=O)O)c3ccccc3F)ccc2OC)c1 [compound 307]	2.92
COc1ccc(C(C)(C)C)cc1-c1nc(C(=O)N[C@@H](CC(=O)O)c2ccccc2F)ccc1OC [compound 308]	> 10
COc1ccc(C(=O)N[C@@H](CC(=O)O)c2ccccc2F)nc1-c1cccc(-c2nnc(C)o2)c1 [compound 316]	> 10
COc1ccc(C(=O)N[C@@H](CC(=O)O)c2ccccc2F)nc1-c1ccnc(N2CCOCC2)c1 [compound 321]	> 10
COc1ccc(C(=O)N[C@@H](CC(=O)O)c2ccccc2F)nc1-c1cccc(F)c1Cl [compound 324]	1.27
COc1ccc(C(=O)N[C@@H](CC(=O)O)c2ccccc2Cl)nc1-c1ccc(F)c(Cl)c1 [compound 332]	5.24
COc1ccc(-c2nc(C(=O)N[C@@H](CC(=O)O)c3ccccc3Cl)ccc2OC)cc1 [compound 335]	2.25
COc1ccc(C(=O)N[C@@H](CC(=O)O)c2ccccc2Cl)nc1-c1ccc(C)cc1 [compound 336]	3.13
COc1cccc(-c2nc(C(=O)N[C@@H](CC(=O)O)c3ccccc3Cl)ccc2OC)c1 [compound 339]	2.78
COc1ccc(C(=O)N[C@@H](CC(=O)O)c2ccccc2C)nc1-c1ccc(F)c(Cl)c1 [compound 349]	1.46
COc1ccc(C(=O)N[C@@H](CC(=O)O)c2ccccc2C)nc1-c1cccc(C#N)c1 [compound 359]	4.49
COc1ccc(C(=O)N[C@@H](CC(=O)O)c2ccccc2C)nc1-c1cccc(C(C)=O)c1 [compound 360]	2.42
COc1ccc(C(=O)N[C@@H](CC(=O)O)c2ccccc2C)nc1-c1ccc(C(C)=O)cc1 [compound 361]	9.24
COc1ccc(C(=O)N[C@@H](CC(=O)O)c2ccccc2C)nc1-c1cc(F)cc(F)c1 [compound 362]	1.43
COc1ccc(C(=O)N[C@@H](CC(=O)O)c2ccccc2C)nc1-c1ccc(C(C)=O)s1 [compound 364]	9.25
COc1ccc(C(=O)N[C@@H](CC(=O)O)c2ccccc2C)nc1-c1ccncc1 [compound 365]	5.45
COc1ccc(C(=O)N[C@@H](CC(=O)O)c2ccccc2C)nc1-c1ccc(C)c(F)c1 [compound 370]	1.58
COc1ccc(C(=O)N[C@@H](CC(=O)O)c2ccccc2C)nc1-c1ccc(F)nc1 [compound 373]	1.6

— US9029559B2, “Substituted 3-heteroaroylamino-propionic acid derivatives and their use as pharmaceuticals” (SANOFI, priority 2011, dated 2015)
